# Reference: patent US20210212937A1, “GLUCONO DELTA-LACTONE FOR TREATMENT OF VAGINAL FUNGAL INFECTIONS” (Gedea Biotech AB, priority 2016, published 2021)
# Assays:
# C. albicans [1] = experiment: Microfluidics study of biofilm development (cell morphology); format: cell-based, Candida albicans; conditions: 5 h, 1 h hydrolysate of GDA pellet diluted 50 times
# Description: To monitor the C. albicans cell morphology we studied the biofilm development also using microscopy and microfluidics. After the yeast cells were inoculated, hyphae started to form within first hour of incubation in the biofilm medium (YNB supplemented with 100 mM proline and 0.2% glucose, pH7.0). […] A sample was taken after 1 h and diluted 50 times with biofilm medium and added to C. albicans.
# Candida sp. = experiment: Viability on medium with calcofluor white versus osmotic stabilizer (cell wall damage); format: cell-based; conditions: compared to medium with 0.5M sucrose and to untreated cells
# C. albicans [2] = experiment: Viability of mature biofilm, XTT staining; format: cell-based, Candida albicans
# Description: (§1) XXT is a colorimetric assay for quantification of cellular viability, and cytotoxicity. The assay is based on the cleavage of the tetrazolium salt XTT, a conversion that only occurs in viable cells. […] Then the cells were washed 2 times with PBS, after which the XTT reaction mixture was added. After 30 min the optical density measured at 485 nm.
# C. glabrata [3] = experiment: Cell survival of mature biofilm, serial dilution plating on YPD; format: cell-based, Candida glabrata
# Description: (§2) The plated cells were incubated for 24 h at 37° C. and visually analyzed. The cells from the mature biofilm treated with water were used as a control. […] At the concentrations of 0.2 and 0.5 g/ml after 5 h of incubation the cell viability was decreased by about 100 times for both C. albicans and C. glabrata.
# C. glabrata [4] = experiment: Viability of mature biofilm, XTT staining; format: cell-based, Candida glabrata; conditions: 24 h of incubation
# Description: as §1
# Candida glabrata = experiment: Biofilm formation in a model of in vivo conditions using GDA pellet; format: cell-based; conditions: C. glabrata; GDA released from pellet (2.5 g) in pH 3.71 buffer, samples 1-24 h, diluted 50 times
# Description: (§3) Yeast strains were grown at 37° C. in complete medium YPD (0.5% (weight/volume) yeast extract, 1% (weight/volume) peptone, 2% (weight/volume) glucose) or minimal medium consisting of YNB (yeast nitrogen base without amino acids and ammonium sulphate, FORMEDIUM™, CYN0505) supplemented with 0.5% (weight/volume) ammonium sulphate, 0.2% (weight/volume) glucose and 100 mM L-proline. If needed 2% (weight/volume) agar was used to solidify media. The liquid minimal medium (YNB (yeast nitrogen base without amino acids and ammonium sulphate, FORMEDIUM™, CYN0505) supplemented with 0.5% ammonium sulphate, 0.2% (weight/volume) glucose and 100 mM L-proline) was used for biofilm assay (biofilm medium).
# (§4) Biofilm was measured in liquid culture as described [K. Scherz et al., G3 (Bethesda), 2014, 4, 1671-1680. I. Serrano-Fujarte et al. Biomed Res Int. 2015; 2015:783639] with some modifications. Prior the biofilm assay, yeast cultures were grown in liquid YPD medium for 24 hours until stationary phase cells were then pelleted by centrifugation (1699×g), washed with sterile water and the cells were further inoculated into test biofilm medium (YNB (yeast nitrogen base without amino acids and ammonium sulphate) supplemented with 0.5% ammonium sulphate, 0.2% glucose and 100 mM L-proline pH7.0) at final concentration of 0.2 OD600/ml and incubated in 96-well flat-bottom polystyrene microtiter plates (Sigma Aldrich, Corning® Costar® culture plates, CLS3596-50EA) for 72 hours at 37° C. thermostat. At defined time points crystal violet (HT901-8FOZ; Sigma Aldrich) was added to the media at the final concentration 0.05% In addition, total biomass was measured. […] Total biomass and crystal violet biofilm staining measurements were performed at OD560 with FLUOstar OPTIMA plate reader, BMG LABTECH. […]
# (§5) Samples (4 mL) were taken at fixed time points (1, 2, 3, 4, 5, 6 and 24 h) and new buffer solution (4 mL) was added. The samples were diluted 50 times with biofilm medium (vide supra) and the amount of biofilm formation was measured after 24 h as described above. […]
# Candida albicans [5] = experiment: as above; format: cell-based; conditions: C. albicans
# Description: as §3, §4, §5
# C. albicans [6] = experiment: Cell survival of mature biofilm, serial dilution plating on YPD; format: cell-based, Candida albicans; conditions: 0.5 g/ml, 5 h, 37° C.
# Description: as §2
# Candida albicans [7] = experiment: Biofilm formation of Candida albicans at different pH (crystal violet); format: cell-based
# Description: The biofilm was measured after 24 h and the staining was performed with crystal violet.
# as §3
# Biofilm was measured in liquid culture as described [K. Scherz et al., G3 (Bethesda), 2014, 4, 1671-1680. I. Serrano-Fujarte et al. Biomed Res Int. 2015; 2015:783639] with some modifications. […] At defined time points crystal violet (HT901-8FOZ; Sigma Aldrich) was added to the media at the final concentration 0.05% In addition, total biomass was measured. […] Total biomass and crystal violet biofilm staining measurements were performed at OD560 with FLUOstar OPTIMA plate reader, BMG LABTECH. […]
# Candida = experiment: Biofilm assay of hydroxylated carboxylic acids; format: cell-based
# Text: Given the importance of formation of biofilm in vulvovaginal Candida infections, a biofilm assay was deemed appropriate to evaluate the effect of hydroxylated carboxylic acid in targeting vulvovaginal Candida infections. […] As biofilm formation is dependent on both pH and the occurrence of alternative carbohydrate sources, it was not surprising to learn that lactic acid provides some effect on the formation of biofilm. Further, also some other hydroxylated C2-C5 carboxylic acids provided similar effects. Their effect is deemed to be related to their acidifying effect, as the stronger acid provided somewhat stronger effects.
# Whereas the effect of other hydroxylated carboxylic acids seemingly only is due to their acidity (lowering the pH hampers the formation of biofilm), the effect of polyhydroxylated C6 carboxylic acids, e.g. gluconic acid, on formation of biofilm is pronounced already at pH<7. Thus, it seems that the effect of polyhydroxylated C6 carboxylic acid, e.g. gluconic acid, on formation of biofilm not merely is related to its acidity, but the compound itself, or more precisely the related δ-lactone thereof, also provides an effect.
smiles,measurement,setting,value
"O=C1O[C@H](CO)[C@@H](O)[C@H](O)[C@H]1O [GDA, glucono δ-lactone]",Cell morphology,C. albicans [1],most treated cells were planctonic
same,Viability on medium with calcofluor white,Candida sp.,lower viability
same,"Viability of mature biofilm (XTT, OD 485 nm)",C. albicans [2]; 24 h of incubation,less pronounced
same,"Viability of mature biofilm (XTT, OD 485 nm)",C. albicans [2]; 48 h,clearly seen
same,Decrease of cell viability,"C. glabrata [3]; C. glabrata mature biofilm, 0.5 g/ml, 5 h, 37° C.",about 100 times
same,Sensitivity of mature biofilm compared with C. albicans,"C. glabrata [3]; C. glabrata, plating after incubation with GDA",more sensitive
same,"Viability of mature biofilm (XTT, OD 485 nm)",C. glabrata [4],strong decrease in viability
same,Amount of biofilm formation,Candida glabrata,less pronounced
same,Amount of biofilm formation,"Candida albicans [5]; GDA released from pellet (2.5 g) in pH 3.71 buffer, samples 1-24 h, diluted 50 times",significantly reduces
same,Duration of preventive effect of pellet,"Candida albicans [5]; pellet 2.5 g in pH 3.71 buffer, 37° C.",≥ 24 h
same,Decrease of cell viability,C. albicans [6],about 100 times
same,pH up to which strong effect on biofilm formation is shown,"Candida albicans [7]; C. albicans, 24 h",at least 6
same,Effect on biofilm formation of C. albicans,"Candida albicans [7]; minimal media pH 2.6-6.6, 24 h",strong effects
O=C(O)[C@H](O)[C@@H](O)[C@H](O)[C@H](O)CO [gluconic acid],pH at which effect on formation of biofilm is already pronounced,Candida,< 7
same,Decrease of formation of biofilm,"Candida; compared to glyceric acid, xylonic acid and citric acid",superior effects
CC(O)C(=O)O (stereo not shown) [lactic acid],Activity in biofilm assay,Candida; targeting vulvovaginal Candida infections,moderately active
